How the values were obtained:
[1] = test system: GSK3β Ser9 and GSK3β Tyr216 phosphorylation; assay: GSK3β phosphorylation (Ser9, Tyr216) immunoblot in HEK293 cells; type: cell-based, human; details: 10 nM 24, 27; 10 nM and 1 µM 29; 30 min
Experimental: HEK293, HAP1, HAP1 CRBN KO and SH-SY5Y cells were plated in either 6 cm plates or 6-well plates at varying densities (0.5–0.7 × 10^6 cells per plate or wells), and MEF cells were plated in 10 cm plates (1–1.2 × 10^6 cells per plate) depending on experimental set up in respective culturing condition as described above. Stock solutions of compounds were prepared as 10 mM in DMSO (Sigma–Aldrich). Working dilutions were made up fresh in DMSO and culturing media or differentiation media was refreshed prior to any compound treatments. For mode of action studies, cells were pre-treated with inhibitors for 2 h: 1 µM MG132 (Merck, 474790-5 mg), 1 µM MLN4924 (Merck, 5054770001) or 1 µM GSK3 inhibitor (compound 29), before treating with PROTACs for 2, 4 or 24 h as indicated in figure legends. Cells were washed twice with ice-cold PBS (Gibco), harvested in PBS and pelleted, cells were resuspended in RIPA buffer supplemented with complete EDTA-free protease inhibitor cocktail (Roche,11873580001, 1/10 mL) and phosSTOP (Roche, 04906845001, 1 tablet/10 mL) for 20 min lysis on ice then cleared via centrifugation at 16,000 × g, 4 °C for 20 min. SH-SY5Y cells were lysed in 500 µL ice-cold lysis buffer (25 mM Tris-HCl (pH 7.4), 50 mM NaF, 100 mM NaCl, 1 mM EDTA, 4 mM EGTA, 1% (v/v) Triton-X-100, 0.09% (w/v) sucrose, 10 mM sodium pyrophosphate, 10 mM sodium vanodate, 0.1% (v/v) β-mercaptoethanol, supplemented with complete mini protease inhibitor tablet (Sigma; 1 tablet/ 10 mL buffer)). Lysates were flash frozen, thawed and centrifugated at 16,000 × g, 4 °C for 20 min. Following clearance of lysates, protein concentrations were determined by the BCA assay (Fisher Scientific, 23225) or Bradford assay (Bio-rad). Five to thirty micrograms of protein from lysates were prepared in 4×LDS buffer (Thermo Fisher) and 50 mM dithiothreitol (DTT) denaturated at 95 °C for 5 min. Proteins were separated on NuPAGE 4–12% Bis-Tris gels (Invitrogen) or 4–12% Novex Tris-glycine gels (Invitrogen) in MOPS buffer (Invitrogen) and transferred onto nitrocellulose membranes using an iBlot3 system (Thermo Fisher Scientific) or nitrocellulose membranes (Cytiva) in cold tris-glycine-methanol buffer (25 mM Tris (pH 7.5), 192 mM glycine, 20% (v/v) methanol). Membranes were blocked with either 5% fat-free milk (Marvel) or 1% (w/v) BSA (Sigma) in TBS-T (20 mM Tris (pH 7.5), 150 mM NaCl, 0.1% (v/v) Tween-20 (Sigma)) at room temperature for 30 min, or in the case of SH-SY5Y assays, 1 h, before incubating with primary antibodies overnight at 4 °C on a rocker. […]

[2] = biological target: T1, GSK3β-HiBiT (GSK3β-HiBiT KI HEK293 cells) (Homo sapiens, UniProt P49841); assay: Serum shift assay (10% FBS or 10% mouse serum); type: cell-based
T1 construct: we generated endogenously tagged GSK3β-HiBiT knock-in (KI) HEK293 cells; endogenous in cells; host or cells: GSK3β-HiBiT knock-in HEK293 cells (CRISPR/Cas9, single-cell clone)
T1 sequence (P49841 whole entry): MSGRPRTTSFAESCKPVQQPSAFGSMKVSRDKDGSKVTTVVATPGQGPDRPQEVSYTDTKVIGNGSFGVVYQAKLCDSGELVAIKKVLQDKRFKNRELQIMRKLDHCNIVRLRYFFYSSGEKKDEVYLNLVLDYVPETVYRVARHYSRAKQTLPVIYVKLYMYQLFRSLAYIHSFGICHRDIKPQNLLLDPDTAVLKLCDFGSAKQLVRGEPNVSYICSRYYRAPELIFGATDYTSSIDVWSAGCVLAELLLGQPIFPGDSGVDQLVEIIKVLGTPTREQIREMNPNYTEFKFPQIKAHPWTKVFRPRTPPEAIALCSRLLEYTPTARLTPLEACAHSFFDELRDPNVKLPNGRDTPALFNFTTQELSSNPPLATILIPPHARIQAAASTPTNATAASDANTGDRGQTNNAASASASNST
Experimental: Test compounds were serially diluted into white bottom opaque tissue culture grade 384-well assay plates (Perkin Elmer) using Echo500 (Labcyte) and GSK3β-HiBiT KI HEK293 cells were seeded at a density of 5 × 10^3 cells per well either in 50 µL of DMEM supplemented with regular 10% FBS (Gibco) or instead 10% mouse serum (Balb/C) and plates were incubated for compound treatment in incubators at 37 °C. After 24 h of compound treatment, HiBiT lytic reagents (Promega) prepared according to manufacturers’ instructions were added into plates and luminescence signal was measured on a PheraStar plate reader (BMG) and data analysed using GraphPad Prism (v10.1.2) as previously described above.

Cn1nc(N2CCC(=O)NC2=O)c2ccc(CN3CCN(Cc4ccc(-c5cn(-c6ccc(-c7cn8nccc(C(=O)Nc9cnccc9N9CCOCC9)c8n7)cc6)nn5)nc4)CC3)cc21 [compound 24]
impact on GSK3β Ser9 or GSK3β Tyr216 phosphorylation prior to degradation [1]: no impact observed
DC50 ([2]; 10% foetal bovine serum (FBS), 24 h): 1.3 nM
DC50 ([2]; 10% mouse serum (MS), 24 h): 10.4 nM
Dmax ([2]; HEK293, 10% foetal bovine serum (FBS), 24 h): 89%
predicted shift in whole blood ([2]; extrapolated from 10% mouse serum shift): ~ 80 ×
free fraction in mouse plasma from serum shift ([2]; extrapolated from serum shift assay): ~ 1.2%
